In a melting point compilation (Tetko et al.; mined from patent text by program, amines drawn as free bases though some values may be those of a salt) one finds melting point data, which are given here for 87 molecules.

Some results are limits rather than exact numbers.

What is called melting point is the temperature, or range, at which the solid turns liquid. Turning to `Cc1ccc(Cc2cnc(NCCCCc3ncc(Br)cc3C)[nH]c2=O)cn1`, the melting point lay within 151 to 152 °C. For `COc1cc(Nc2cc(C(=O)O)c(C(=O)O)cc2Nc2ccccc2)cc(OC)c1OC` the value was 145 to 146 °C; for `c1ccc2c(c1)-c1ccccc1C21c2ccccc2-c2ccc(-n3ccnc3-c3nccn3-c3ccc4c(c3)C3(c5ccccc5-c5ccccc53)c3ccccc3-4)cc21`, 404 to 412 °C; for `Cn1cc(-c2ccc(=O)n(Cc3cccc(-c4ncc(OCCO)cn4)c3)n2)cn1`, 182 to 183 °C. For `CNC(=O)CONC(=O)c1cc(Br)cc(Br)c1NC(=O)c1cc(Br)nn1-c1ncccc1Cl` the value was 220 to 221 °C; for `Cc1ccc(C2CCc3ccccc3O2)cc1` (configuration not stated), 94 °C. `CC(C)(C)c1cccc(C[C@@H]2N[C@@H](c3ccccc3)[C@@H](c3ccccc3)OC2=O)c1` registered a melting point of 136 to 137 °C.

`CCN1CCC(c2nc(-c3ccncc3)c(-c3ccc(F)cc3)[nH]2)CC1` showed a melting point of 242 to 244 °C.

As to `CC(C)[C@H](NC(=O)CCC(=O)c1ccccc1)C(=O)O`, the melting point lay within 118 to 120 °C. For `O=C1Nc2ccc3ccccc3c2CCC1(Cl)Cl` the value was 187 to 191 °C.

Regarding `Cc1cc2nc(C=Cc3ccc(C(=O)O)cc3)oc2cc1C`, the melting point was over 300 °C. As for `Cc1[nH]c2cc(C(=O)c3ccccc3)ccc2c1/C=C/C(=O)c1ccncc1`, the figure is 267 to 270 °C; as for `COC(=O)c1ccc(Sc2ccc(OCCCCl)cc2)cc1`, 65 to 67 °C. For the molecule `CCCc1nn(-c2ccc(C(F)(F)F)cn2)cc1CCCOc1cc(CC(=O)O)ccc1F`, the melting point is 88 to 89 °C. As for `CCc1nc2c(N)nc3ccccc3c2n1CCCCNC(=O)C1CCCC1`, the melting point lay in the range of 179 to 180 °C. For `Cc1c(C#N)ccc(Cl)c1Cl` the value was 78 to 79 °C; for `CC(c1cccc(F)c1)n1ncc(-c2ccc(S(N)(=O)=O)cc2)c(-c2ccc(F)cc2)c1=O` (configuration not stated), 192 to 194 °C. As for `CCOC(=O)c1cccc2nc(CC)n(Cc3ccc(-c4ccccc4-c4nnn[nH]4)cc3)c12`, the figure is 188 to 189 °C; as for `CC(C)(O)COc1ccc(CCCO)c(Oc2ncc(C(F)(F)F)cc2Cl)c1`, 81.2 to 82 °C. In turn, `Cc1nn(C)c(C)c1C(=O)Nc1cccc2c1CCC2(C)C` came in with a melting point of 152 °C. As for `C[C@@H](N[C@@H](CC(=O)O)Cc1cc(F)c(F)cc1F)c1ccccc1`, the figure is 144 °C; as for `COc1c(C#N)c2cc(Cl)c(Cl)cc2n1C1OC(CO)C(O)C1O` (configuration not stated), 245 to 246 °C; as for `CCOC(=O)c1ccc(NC(=O)c2ccc3c(c2)OCCO3)cc1`, 134 to 136 °C. For `N#CCC(=O)Nc1ccc(-c2ccc(C(=O)O)c(=O)[nH]2)cc1` the value was over 280 °C; for `CS(=O)(=O)c1ccc(-c2[nH]c3ccccc3c2-c2ccc(Cl)cc2)cc1`, 198 to 200 °C. For `COc1cc(C(C)C(=O)NCC(COC(=O)C(C)(C)C)Cc2ccc(C)c(C)c2)ccc1NS(C)(=O)=O` (configuration not stated) the value was 54 to 57 °C; for `CCCCCCC1CCC(c2ccc(CCCCC)cc2)OC1=O` (configuration not stated), 101 to 102 °C.

Molecule `COC(=O)CCc1cc2cc(Cl)ccc2n1S(=O)(=O)c1cc(OC)ccc1OC` yielded a melting point of 120 to 124 °C. `O=S(=O)(c1ccc(Nc2nccc(Nc3ccc(F)cc3)n2)cc1)N(CCN1CCCC1)[C@H]1CC[C@H](O)CC1` returned a melting point of 135 °C. For `COc1ccc(-c2nnc(Nc3ccc4cccnc4c3)cc2-c2ccc(C(F)(F)F)cc2)cc1` the value was 215 to 217 °C; for `CNC(=S)C1(c2ccccn2)OCCCS1` (configuration not stated), 157 °C; for `COc1cccc(CN(Cc2cccc(OC)c2)c2ccc(-c3ccccc3)cc2)c1`, 98 to 98.5 °C. For `CC1CN(C(=O)c2ccc(Cl)cc2Cl)c2ccc(Cl)cc2C1=O` (configuration not stated) the value was 157 to 159 °C; for `O=C1NC(=O)C(Cc2ccc(OCCc3c[nH]c4ccccc34)cc2)S1` (configuration not stated), 42.6 to 44.5 °C; for `CCOC(=O)C(C#N)(CCCN(C)CCc1ccc(OC)c(OC)c1)c1ccc(OC)c(OC)c1` (configuration not stated), 77 to 78 °C. As for `CNc1c(F)cc2c(=O)c(C(=O)O)cn(-c3ccc(F)c(N)n3)c2c1Cl`, the figure is 233 to 238 °C; as for `Nc1ccn2nc(-c3cccc(F)c3)nc2c1`, 200 to 203 °C; as for `COC(=O)c1ccc(CC23CCCN2C(=O)N(c2cc(Cl)c(O)c(Cl)c2)C3=O)cc1` (configuration not stated), 105 °C.

Molecule `C#CCOC(=O)Oc1ccc2ccc(OC(=O)OCC#C)cc2c1` had a melting point of 94 to 96 °C. For `CCN(C1CCN(C)CC1)S(=O)(=O)c1ccc(Nc2nccc(Nc3ccc(F)cc3)n2)cc1` the value was 154 °C; for `N=C(N)c1ccc(-c2ccc(N3CCCN(CC(=O)O)C3=O)cc2)cc1`, over 200 °C; for `COc1ccc(COc2cccc3cc(NS(=O)(=O)C(F)(F)F)ccc23)cc1Cl`, 129 to 130 °C. As for `CCCCCCCCCCC1COC(=O)N1C(C)=O` (configuration not stated), the figure is 51 to 53 °C.

Molecule `C#CCOc1ccc2c(c1)nc(N)c1nc(COCC)n(CC(C)(C)NS(C)(=O)=O)c12` came in with a melting point of 175 to 176 °C. As to `Cn1nc2ccccc2c1C(=O)NCCCN1CCC(c2ccc(F)cc2)CC1`, the melting point fell in the range of 136 to 140 °C. As for `COc1cc(C#N)ccc1C=O`, the figure is 112 to 114 °C; as for `COc1ccc(CC2=C(C)N=NC2=O)cc1OC1CCCC1`, 186 to 187 °C; as for `Cc1nc(-c2ccc(Cl)cc2)oc1COC(C)(C)C(=O)O`, 166 to 167 °C.

Molecule `CCNC(=O)c1ccc(N2CCN(Cc3cc(C)c4c(c3)NC(=O)C(C)O4)CC2)c(F)c1` (configuration not stated) had a melting point of 242 to 245 °C.

As to `CC(Oc1ccc2nc(NC(=O)NCCN3CCOCC3)sc2c1)c1c(Cl)cccc1Cl` (configuration not stated), the melting point lay within 165 to 168 °C. On to `CC(C)NC(=O)c1cnc(N2CCC(n3c(=O)oc4ccccc43)CC2)c(Cl)c1`, for which the melting point lay in the range of 162 to 168 °C.

On to `CN(C)c1cc2c3c(cccc3c1)C(=O)N(CCCCCC(=O)O)C2=O`, for which the melting point fell in the range of 111 to 114 °C. As for `CCc1ccccc1OS(=O)(=O)c1ccc(N2CCN(C)C2=O)cc1`, the figure is 126 to 128 °C; as for `CCCCCCCN(Cc1ccc(C(C)(C)C)cc1)C(Nc1ccc(Cl)cc1)=C1C(=O)COC1=O`, 101 to 104 °C. With `Clc1ccc2nc(-c3cccs3)c(I)n2n1`, the melting point lay within 205 to 209 °C. `CC1(C)CCC(C)(C)c2cc(-c3cc(-c4ccc(C(=O)O)cc4)ccc3-c3ccccc3)ccc21` showed a melting point of 287 to 288 °C. Consider `COC(=O)c1ccc(CCc2nc(-c3ccccc3)oc2C)cc1`, for which the melting point fell in the range of 59 to 60 °C. As for `O=C(Nc1cc(C(F)(F)F)ccc1N1CCCCCC1)c1ccncc1`, the figure is 138 to 139 °C; as for `CCc1cc(Br)c2c(=O)oc(=O)[nH]c2c1`, 236 to 237 °C. As for `CN1C(=O)C2CN(Cc3ccncc3)CCN2c2ccccc21` (configuration not stated), the figure is 252 to 254 °C; as for `CCCC[C@H](NC(=O)[C@H](CC(C)C)NC(=O)OCc1ccccc1)C(=O)CCCc1cccs1`, 65 to 67 °C; as for `CCCOc1ccc(Br)cc1CN(CC)c1ccc(C(=O)O)nn1`, 135 to 137 °C. In turn, `NC1=NC2(O)c3cc([N+](=O)[O-])ccc3CC2S1` (configuration not stated) showed a melting point of over 250 °C. As for `Cc1[nH]c(=O)[nH]c(=O)c1[N+](=O)[O-]`, the figure is 281 °C. Turning to `CCc1cncc(-c2nc(C(=O)N(C)C)c3c4ccc(Cl)cc4n(C)c3n2)c1`, the melting point is 218 to 219 °C.

Turning to `N#CC(N)=C(C#N)N=Cc1nn(-c2c(Cl)cc(C(F)(F)F)cc2Cl)nc1C(F)(F)F`, the melting point lay within 218 to 220 °C. `CCNc1cc(O)c(C(=O)c2ccccc2C(=O)O)cc1C`: the melting point is 200 to 202 °C. As for `O=C(OC1CCCCC1)c1ncn2c1[C@@H]1CCCN1C(=O)c1c(I)cccc1-2`, the figure is 181 to 182 °C; as for `CC(=O)CC(=O)N[C@H]1CC(=O)OC1=O`, 132 to 135 °C.

In turn, `CC(C#N)(Cc1c[nH]cn1)c1ccccc1` (configuration not stated) gave a melting point of 187 to 189 °C. As for `CN1C(=O)CC[C@]2(C)c3ccc(-c4ccc5c(c4)C(=O)C(=O)N5)cc3CC[C@@H]12`, the figure is over 250 °C. Turning to `COc1cc(C2CCN(C(=O)CN)CC2)ccc1Nc1ncc2ccc(-c3ccccc3N(C)S(C)(=O)=O)n2n1`, the melting point was 106 to 119 °C.

For the molecule `CCN(CC)CCOc1ccc(Nc2ncc3c(n2)N(C)C(=O)N(c2ccccc2)C3)cc1`, the melting point is 141 to 144 °C.

For `COc1ccc(CCC2OC(=O)NC2=O)cc1O` (configuration not stated), the melting point lay in the range of 121 to 122 °C. For `CSC(=N[N+](=O)[O-])N(C)C(C)=O` the value was 40 to 41 °C. As for `CS(=O)CCN1CCC2(CC1)CC(=O)c1cc(NS(C)(=O)=O)ccc1O2` (configuration not stated), the figure is 181 to 183 °C; as for `COC(=O)c1ccccc1-c1nc2cc(C)ccc2o1`, 135 to 138 °C. For the molecule `CCOC(=O)Cn1c(=O)c(=O)[nH]c2cc(C(F)(F)F)ccc21`, the melting point is 250 to 251 °C.

`Cc1c(Cl)nc(Br)n1S(=O)(=O)c1cccnc1Cl` displayed a melting point of 144 to 146 °C.

`CCOC(=O)c1cn(-c2nonc2C)c2cc(F)c(F)cc2c1=O` registered a melting point of 178 to 180 °C. For `O=Cc1cccc(Cl)n1` the value was 136 °C. As for `Cc1cc(C)cc(Sc2[nH]c(C)nc2CO)c1`, the figure is 199 to 201 °C; as for `CCOc1nn(Cc2ccc(OCc3ccc(-c4ccccc4)cn3)cc2)cc1CCC(=O)O`, 127 to 128 °C. For `CC(=NCc1ccc(Cl)cc1Cl)c1ccc(OCC(O)(Cn2cncn2)C(C)(C)C)cc1` (configuration not stated) the value was 101 °C; for `N#CCCCc1ncc(Br)cc1[N+](=O)[O-]`, 73 to 76 °C. `CCC(=O)Oc1ccc2c(c1)CCC1C2CCC2(C)C1CC(O)C2OC(=O)CC` (configuration not stated): the melting point is 105 °C. For `OCC1CN(Cc2ccccc2)CCN1Cc1ccccc1` (configuration not stated) the value was 77 °C.
